*: point of attachment. NHNH2 = NN*

For one test, the system named is Hela cells. Description: EGFP mRNA delivery, robotic library screening, HeLa. It is filed as cell-based. The method, then: Cells were seeded in a 96 well plate the day before the experiment at a concentration of 50,000 cell/mL (100 μL/w) in DMEM+10% FBS+1% Gln-Abt. For robotic library screening, the delivery of EGFP-mRNA (from TriLink, fully substituted with 5-methoxyuridine, capped and polyadenylated; TriLink, CleanCap® EGFP mRNA (5moU), ref. L-7201) in six different cell lines was performed. Amphiphilic molecule stock solutions were prepared in DMSO as described above and diluted in DMEM to afford a range of concentrations. The solutions of EGFP-mRNA/amphiphilic molecule complexes were freshly prepared prior to the transfection experiments. 35 μL of the corresponding amphiphile were added to 10 μL of a solution of EGFP-mRNA at 10 ng/μL in DMEM. The mixture was shaken for 30 min at room temperature before the addition to the cells. The cell medium was aspirated, and cells were washed with PBS twice. Cells were covered with 39 μL of DMEM and 11 μL of the complex's solution were added to the cells and incubated for 4 h (final concentration of peptide=2.5, 5 and 10 μM; final concentration of EGFP-mRNA=25 ng/well). After the incubation, the medium was replaced by 100 μL of fresh DMEM supplemented with 10% FBS. The total EGFP fluorescence was quantified after 72 h in a well plate reader. Amphiphile transfection efficiency was compared and normalized to Lipofectamine® MessengerMax efficiency (value of 1 in Tables 1-5 and 7; double underlined numbers). All experiments were done in triplicate.
(§1) Tables 1-7: RLuc (pDNA) or EGFP (mRNA) expression levels were normalized to Lipofectamine reagents (value=1) and expressed as fold-times signal increase. In the case of siRNA, the siRNA treated cells fluorescence was compared with siMOCK control fluorescence, while Cas9-RNP mediated knockout was measured against the fluorescence of untreated cells. In both siRNA and Cas9-RNP, values are expressed as % fluorescence reduction. Amphiphile concentration was 5 μM in all cases. All experiments were performed in triplicate.
Tables 14-19 show the mean (triplicates) fluorescence intensity measured after the transfection of EGFP mRNA by different amphiphiles at different concentrations in a variety of cell lines. Background fluorescence values, accounted by untreated control cells, were subtracted for processing.

Test [1] concerns A549 cells expressing EGFP. Description: EGFP-targeting siRNA delivery (GFP silencing vs siMOCK), A549. It is filed as cell-based. The settings on record: for siRNA % fluorescence reduction vs siMOCK: A549, amphiphile 5 μM, hydrophobic tail; for percentage of GFP-silencing relative to siMOCK: A549 cells. On the procedure:
To generate an EGFP expressing HeLa cell line, HeLa cells were transfected with EGFP pDNA (pEGFP-C1, Clontech) and stable transfectants were selected with 400 μg/mL of G-418 (Millipore). Green clones were selected by epifluorescence microscopy and tested for EGFP expression stability through several passages. […] All other EGFP-expressing cell lines were obtained in a similar way from parent non-EGFP-expressing cell lines.
Cells expressing EGFP were seeded in a 96 well plate the day before the experiment at a concentration of 50,000 cell/mL (100 μL/w) in DMEM+10% FBS+1% Gln-Abt. For robotic library screening, the delivery of an EGFP-targeting siRNA (EGFP: enhanced green fluorescent protein, Ambion® Silencer® GFP Positive Control siRNA (siGFP) (AM4626)) in six different cell lines expressing EGFP was performed. […] The mixture was shaken for 30 min at room temperature (rt) before the addition to the cells. The cell medium was aspirated, and cells were washed twice with PBS. Finally, 50 μL of the solution of siRNA/amphiphile complexes were added to the cells and incubated for 4 h. After transfection, the medium was replaced by 100 μL of fresh DMEM supplemented with 10% FBS. The fluorescence knockdown was quantified after 72 h in a plate reader, by comparison with cells transfected with a non-targeting siRNA control (siMOCK, Silencer™ Negative Control No. 1 siRNA (siMOCK) (AM4611)). EGFP knockdown was compared with Lipofectamine® RNAiMAX silencing efficiency (30-60% depending on cell line, defined with a numeric value in the below tables). All experiments were done in triplicate.
as §1
Tables 20-25 show the mean (triplicates) percentage of GFP-silencing, accounted by fluorescence intensity decrease relative to a non-targeting siRNA (siMOCK) control, measured after the transfection of siRNA by different amphiphiles at different concentrations in a variety of cell lines. Background values, accounted by untreated control cells, were subtracted for processing.

On to “Ac-RK*LRRK*LRK*-NH2 (Ac-RK(NHNH2)LRRK(NHNH2)LRK(NHNH2)-NH2; not fully specified; printed as Ac-RK*LRRK*LRK*-NH2; also: K*2,K*6,K*9: native or modified lysine (ε-amide to a linker)) [Peptide 9.3]”, for which the “mean fluorescence intensity (EGFP mRNA)” value in the test with Hela cells (HeLa, Dodecanal, 2.5 μM) is given as 2347; in the test on Hela cells (HeLa, Dodecanal, 5 μM), 3482; in the test with Hela cells (HeLa, Myristoleyl, 2.5 μM), 11661; in the test on Hela cells (HeLa, Oleyl, 5 μM), 441; in the test with Hela cells (HeLa, Petroselinyl, 10 μM), 1322; in the test with Hela cells (Hela, Myristoleyl, 5 μM), 2874. Also, the “mean fluorescence intensity (EGFP mRNA)” value in the test on Hela cells (Hela, Oleyl, 10 μM) is recorded as 335; with Hela cells (Hela, Palmitoleyl, 5 μM) it was 3313; in the test with Hela cells (Hela, Petroselinyl, 5 μM) it was 9616. Moreover, in test [1] (palmitoleyl hydrophobic tail), the “siRNA % fluorescence reduction vs siMOCK” value was determined as 75%. For the same substance, the “percentage of GFP-silencing relative to siMOCK” value is reported as 35% in test [1] (Dodecanal, 5 μM); 35% in test [1] (Dodecanal, 10 μM); 55% in test [1] (Dodecanal, 15 μM); 34% in test [1] (Myristoleyl, 5 μM); 58% in test [1] (Myristoleyl, 10 μM); 23% in test [1] (Myristoleyl, 15 μM). For the same substance, the “percentage of GFP-silencing relative to siMOCK” value in test [1] (Oleyl, 10 μM) is reported as 32%; in test [1] (Oleyl, 15 μM) it was 28%; in test [1] (Palmitoleyl, 5 μM), 42%; in test [1] (Palmitoleyl, 10 μM), 75%; in test [1] (Palmitoleyl, 15 μM), 64%; in test [1] (Petroselinyl, 5 μM), 6%. Besides, the “percentage of GFP-silencing relative to siMOCK” value turned out to be 58% in test [1] (Petroselinyl, 10 μM) and 75% in test [1] (Petroselinyl, 15 μM).

In the case of “Ac-RK*LRRLLRK*-NH2 (Ac-RK(NHNH2)LRRLLRK(NHNH2)-NH2; not fully specified; printed as Ac-RK*LRRLLRK*-NH2; also: K*2,K*9: native or modified lysine (ε-amide to a linker)) [Peptide 9.2]”, the “mean fluorescence intensity (EGFP mRNA)” value in the test with Hela cells (HeLa, Dodecanal, 2.5 μM) is given as 933; with Hela cells (HeLa, Dodecanal, 5 μM), 390; in the test with Hela cells (HeLa, Myristoleyl, 2.5 μM), 1738; with Hela cells (Hela, Myristoleyl, 5 μM) it was 585. Moreover, the “percentage of GFP-silencing relative to siMOCK” value in test [1] (Dodecanal, 5 μM) was 32%; in test [1] (Dodecanal, 10 μM), 29%; in test [1] (Dodecanal, 15 μM), 16%; in test [1] (Myristoleyl, 5 μM) it was −1%; in test [1] (Myristoleyl, 10 μM) it was −6%; in test [1] (Myristoleyl, 15 μM), −14%.

As to “Ac-RRHK*RLK*RRLK*RL-NH2 (Ac-RRHK(NHNH2)RLK(NHNH2)RRLK(NHNH2)RL-NH2; not fully specified; printed as Ac-RRHK*RLK*RRLK*RL-NH2; also: K*4,K*7,K*11: native or modified lysine (ε-amide to a linker)) [13(Leu-His)]”, the “mean fluorescence intensity (EGFP mRNA)” value was 45 in the test on Hela cells (HeLa, Petroselinyl, 10 μM) and 112 in the test on Hela cells (Hela, Petroselinyl, 5 μM). In test [1], the “siRNA % fluorescence reduction vs siMOCK” value stood at 76%. For the same substance, the “percentage of GFP-silencing relative to siMOCK” value in test [1] (Dodecanal, 10 μM) came out at 10%; in test [1] (Dodecanal, 15 μM) it was 55%; in test [1] (Myristoleyl, 10 μM) it was 10%; in test [1] (Myristoleyl, 15 μM), 14%; in test [1] (Oleyl, 5 μM) it was 29%; in test [1] (Oleyl, 10 μM), 20%. In addition, the “percentage of GFP-silencing relative to siMOCK” value stood at 17% in test [1] (Oleyl, 15 μM); 54% in test [1] (Palmitoleyl, 10 μM); 50% in test [1] (Palmitoleyl, 15 μM); 38% in test [1] (Petroselinyl, 10 μM); 76% in test [1] (Petroselinyl, 15 μM).

Regarding Ac-RRLK*RLK*RRLK*RL-NH2 [Peptide 13.3], the “mean fluorescence intensity (EGFP mRNA)” value with Hela cells (HeLa, Dodecanal, 5 μM) came to 445; in the test with Hela cells (HeLa, Myristoleyl, 2.5 μM) it was 535; in the test with Hela cells (HeLa, Oleyl, 5 μM) it was 427; in the test with Hela cells (HeLa, Petroselinyl, 2.5 μM) it was 633; in the test with Hela cells (HeLa, Petroselinyl, 10 μM) it was 489; in the test on Hela cells (Hela, Dodecanal, 10 μM), 393. Moreover, the “mean fluorescence intensity (EGFP mRNA)” value in the test with Hela cells (Hela, Myristoleyl, 5 μM) turned out to be 580; in the test with Hela cells (Hela, Myristoleyl, 10 μM) it was 424; in the test on Hela cells (Hela, Petroselinyl, 5 μM) it was 497. Also, the “siRNA % fluorescence reduction vs siMOCK” value in test [1] (dodecanal hydrophobic tail) came to 58%; in test [1] (myristoleyl hydrophobic tail) it was 57%; in test [1] (palmitoleyl hydrophobic tail), 60%. For the same substance, the “percentage of GFP-silencing relative to siMOCK” value worked out at 59% in test [1] (Dodecanal, 5 μM); 54% in test [1] (Dodecanal, 10 μM); 46% in test [1] (Dodecanal, 15 μM); 57% in test [1] (Myristoleyl, 5 μM); 25% in test [1] (Myristoleyl, 10 μM); 28% in test [1] (Myristoleyl, 15 μM). The “percentage of GFP-silencing relative to siMOCK” value worked out at 14% in test [1] (Oleyl, 10 μM); 4% in test [1] (Oleyl, 15 μM); 60% in test [1] (Palmitoleyl, 5 μM); 37% in test [1] (Palmitoleyl, 10 μM); 29% in test [1] (Palmitoleyl, 15 μM); 31% in test [1] (Petroselinyl, 5 μM). Besides, the “percentage of GFP-silencing relative to siMOCK” value is given as 53% in test [1] (Petroselinyl, 10 μM) and 59% in test [1] (Petroselinyl, 15 μM).

As to “Ac-RRLK*RLLRRLK*RL-NH2 (Ac-RRLK(NHNH2)RLLRRLK(NHNH2)RL-NH2; not fully specified; printed as Ac-RRLK*RLLRRLK*RL-NH2; also: K*4,K*11: native or modified lysine (ε-amide to a linker)) [Peptide 13.2]”, the “mean fluorescence intensity (EGFP mRNA)” value with Hela cells (HeLa, Oleyl, 5 μM) was found to be 273. Moreover, the “percentage of GFP-silencing relative to siMOCK” value in test [1] (Oleyl, 5 μM) is 19%; in test [1] (Oleyl, 10 μM) it was −2%; in test [1] (Oleyl, 15 μM), −21%.

Values taken from patent US20250304623A1, “PEPTIDES FOR INTRACELLULAR DELIVERY” (UNIVERSIDADE DE SANTIAGO DE COMPOSTELA, priority 2022, published 2025).
